Results as given in publication PMC6273369, “Synthesis, Biological Evaluation and Molecular Modelling of 2′-Hydroxychalcones as Acetylcholinesterase Inhibitors” (Molecules, 2016).
Read-outs that look alike come from different tables or passages of the source.

Key:
human AChE [1] = target: T1, human AChE (Homo sapiens, UniProt P22303); assay: biochemical; settings: for inhibition at 10 µM: read-out: % Inhibition at 10 µM; for IC50: mean ± SEM
T1 construct: purchased Sigma-Aldrich
Method: AChE and BChE inhibition studies were performed in 96 well plates by the method of Ellman, et al.. […] The mixture was preincubated for 20 min at 37 °C before addition of 50 μL (0.120 mM) of the substrate, acetylthiocholine (ATC) iodide or butyrylthiocholine (BTC) iodide (depending on the enzyme). […] Each assay was performed in triplicate. […] The percentage of inhibition was calculated using the expression: (E–S)/E × 100 where E is the activity of the enzyme without test compound and S is the activity of the enzyme with test compound.
(§1) IC50 values were obtained from concentration-inhibition experiments by nonlinear regression analysis using PRISM® v5.0 (GraphPad Inc., San Diego, CA, USA).

equine BChE = target: T2, equine BChE (Equus caballus, UniProt P81908); assay: Equine BChE inhibition, Ellman's method; format: biochemical; settings: for Selectivity for AChE: IC50 (BChE)/IC50 (AChE); for IC50: equine BChE, mean ± SEM
T2 construct: purchased Sigma-Aldrich
T2 sequence (P81908 whole entry): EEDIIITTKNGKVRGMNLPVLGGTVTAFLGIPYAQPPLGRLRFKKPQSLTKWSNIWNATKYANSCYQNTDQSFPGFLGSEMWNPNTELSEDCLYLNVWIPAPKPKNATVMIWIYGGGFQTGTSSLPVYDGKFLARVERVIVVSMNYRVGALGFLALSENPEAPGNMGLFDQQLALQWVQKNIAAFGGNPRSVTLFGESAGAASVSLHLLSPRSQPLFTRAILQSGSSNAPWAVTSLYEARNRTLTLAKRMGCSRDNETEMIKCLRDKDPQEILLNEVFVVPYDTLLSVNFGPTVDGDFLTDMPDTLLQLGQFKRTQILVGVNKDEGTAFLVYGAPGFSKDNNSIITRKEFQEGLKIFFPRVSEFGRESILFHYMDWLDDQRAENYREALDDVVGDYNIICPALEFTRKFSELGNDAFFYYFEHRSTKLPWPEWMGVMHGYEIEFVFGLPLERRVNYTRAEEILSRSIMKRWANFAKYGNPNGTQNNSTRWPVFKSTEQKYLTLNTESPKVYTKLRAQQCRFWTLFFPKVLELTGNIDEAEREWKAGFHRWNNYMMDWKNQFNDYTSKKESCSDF
Method: The IC50 values of the four compounds that gave the greatest inhibition of AChE were also determined for equine BChE, which is readily available and is considered a good model for human BChE [23], as the equine form has 90% sequence identity compared to the human form. […].
AChE and BChE inhibition studies were performed in 96 well plates by the method of Ellman, et al.. 110 μL of sodium phosphate buffer (pH 8.0) was added to each well followed by 20 μL of test compound, 50 μL of 5,5′-dithiobis-(2-nitrobenzoic acid) (DTNB) (0.126 mM) and 20 μL of AChE or BChE (0.15 units/mL). The mixture was preincubated for 20 min at 37 °C before addition of 50 μL (0.120 mM) of the substrate, acetylthiocholine (ATC) iodide or butyrylthiocholine (BTC) iodide (depending on the enzyme). The hydrolysis of ATC or BTC was monitored using an Infinite® M200 PRO multimode reader (Tecan Group Ltd., Männedorf, Switzerland) by measuring the absorbance due to yellow 5-thio-2-nitrobenzoate anion at 412 nm every 30 s for 25 min. Each assay was performed in triplicate. […] The percentage of inhibition was calculated using the expression: (E–S)/E × 100 where E is the activity of the enzyme without test compound and S is the activity of the enzyme with test compound.
as §1

human AChE [2] = target: T1, human AChE; assay: Kinetic characterisation of AChE inhibition (Lineweaver-Burk, nonlinear regression mixed-model); format: biochemical; settings: substrate acetylthiocholine 0.1-1.0 mM, read-out: Apparent Ki, human AChE
Method: […]. The mode of inhibition was investigated using Lineweaver–Burk plots of 1/initial reaction rate (1/V) against 1/substrate concentration (1/[S]). Apparent inhibition constant (Ki and Ki′) values were determined using the nonlinear regression mixed-model inhibition method in PRISM® v5.0 (GraphPad Inc.).

[3] = human recombinant AChE, 10 µM, mean of triplicate, na = no activity observed at 10 µM

T1 sequence (P22303 32-614): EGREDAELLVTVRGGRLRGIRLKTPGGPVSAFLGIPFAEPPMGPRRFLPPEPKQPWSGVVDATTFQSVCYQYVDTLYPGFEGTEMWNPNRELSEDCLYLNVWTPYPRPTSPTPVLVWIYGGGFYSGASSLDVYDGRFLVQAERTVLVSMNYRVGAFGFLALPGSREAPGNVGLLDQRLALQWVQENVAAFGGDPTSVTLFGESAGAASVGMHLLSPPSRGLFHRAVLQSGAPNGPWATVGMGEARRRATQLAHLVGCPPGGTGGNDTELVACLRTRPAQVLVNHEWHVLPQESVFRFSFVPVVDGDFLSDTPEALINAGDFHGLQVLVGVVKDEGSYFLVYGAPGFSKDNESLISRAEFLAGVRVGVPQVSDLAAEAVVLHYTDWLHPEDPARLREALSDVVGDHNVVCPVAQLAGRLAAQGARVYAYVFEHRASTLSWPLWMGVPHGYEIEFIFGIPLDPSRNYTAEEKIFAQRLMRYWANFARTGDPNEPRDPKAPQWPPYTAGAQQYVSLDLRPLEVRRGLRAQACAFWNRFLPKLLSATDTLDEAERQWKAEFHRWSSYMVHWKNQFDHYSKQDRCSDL

SMILES	inhibition at 10 µM (human AChE [1])	inhibition at 10 µM (human AChE [1]; [3])	IC50 (human AChE [1]; human recombinant AChE)	Selectivity for AChE (equine BChE)	IC50 (equine BChE)	Ki (human AChE [2])
O=C(/C=C/c1ccccc1)c1ccccc1O [Compound 1, 2′-Hydroxychalcone]	11%	–	–	–	–	–
CN(C)c1ccc(/C=C/C(=O)c2ccccc2O)cc1 [Compound 5, 2′-Hydroxy-4-(dimethylamino)chalcone]	–	28%	266 ± 48 µM	–	–	–
COc1ccc(/C=C/C(=O)c2ccccc2O)cc1 [Compound 6, 2′-Hydroxy-4-methoxychalcone]	6%	–	–	–	–	–
O=C(/C=C/c1ccccc1Br)c1ccccc1O [Compound 7, 2-Bromo-2′-hydroxychalcone]	–	38%	55 ± 12 µM	2.0	108 ± 18 µM	40 µM
COc1cc(O)c(C(=O)/C=C/c2ccc(C)cc2)c(OC)c1 [Compound 9, 2′-Hydroxy-4′,6′-dimethoxy-4-methylchalcone]	–	23%	354 ± 33 µM	–	–	–
COc1cc(O)c(C(=O)/C=C/c2ccc(Br)cc2)c(OC)c1 [Compound 10, 4-Bromo-2′-hydroxy-4′,6′-dimethoxychalcone]	–	30%	41 ± 13 µM	1.4	59 ± 12 µM	31 µM
COc1cc(O)c(C(=O)/C=C/c2ccc(N(C)C)cc2)c(OC)c1 [Compound 11, 2′-Hydroxy-4′,6′-dimethoxy-4-(dimethylamino)chalcone]	–	5%	–	–	–	–
COc1ccc(/C=C/C(=O)c2c(O)cc(OC)cc2OC)cc1 [Compound 12, 2′-Hydroxy-4,4′,6′-trimethoxychalcone]	–	7%	–	–	–	–
COc1cc(O)c(C(=O)/C=C/c2ccccc2Br)c(OC)c1 [Compound 13, 2-Bromo-2′-hydroxy-4′,6′-dimethoxychalcone]	–	23%	85 ± 16 µM	–	71 ± 14 µM	113 µM
COc1cc(O)c(C(=O)/C=C/c2cc(Cl)cc(Cl)c2O)c(OC)c1 [Compound 14, 3,5-Dichloro-2,2′-dihydroxy-4′,6′-dimethoxychalcone]	–	51%	73 ± 22 µM	1.1	81 ± 18 µM	56 µM
